Experimental findings from patent US9597407B2, “Targeted antimicrobial moieties” (C3 Jian, Inc., priority 2009, dated 2017) are described below.

Entries after “also recorded” stand apart in the source; their conditions may differ. Square brackets hold non-standard residues; d marks the D form. Ends that are not written are not given here. dOrn = NCCC[C@@H](N)C(=O)O

The subject of this experiment is bacteria. Nature of the experiment: Binding of targeting peptides to microorganisms (Table 3).
Where [1] appears, read: microorganism the targeting peptide binds, binding in aqueous buffers that varied with peptide solubility, preferably 1x PBS.
The mark [2] stands for this setting: microorganism bound by the targeting peptide, binding in aqueous buffers chosen by peptide solubility, preferably 1x PBS.

“1T-219 (RNINVSATFITEKSLV; Peptide with targeting and/or antimicrobial activity) [Peptide 1T-219]”: under setting [1], the “Target(s)” value is reported as “S. sanguinis”.

Consider “1T-222 (RIEASLISAIMFSMFNAIVKFLQK; Peptide with targeting and/or antimicrobial activity) [Peptide 1T-222]”, for which the “Target(s)” value under setting [1] is given as “F. nucleatum; also recorded: S. sanguinis”.

For the substance “1T-237 (EDPVPNHFTLRRNKKEKPSKS; Peptide with targeting and/or antimicrobial activity) [Peptide 1T-237]”, the “Target(s)” value under setting [1] is given as “S. sanguinis”.

“1T-239 (ADDLLNKRLTDLIMENAETVKTIDLDNSD; Peptide with targeting and/or antimicrobial activity) [Peptide 1T-239]”: the “Target(s)” value under setting [1] is “A. naeslundii; also recorded: S. gordonii; also recorded: S. mitis; also recorded: S. mutans; also recorded: S. oralis; also recorded: S. sanguinis”.

For the substance “1T-242 (KQVQNTTLIICGTVLLGILFKSYLKSQKSV; Peptide with targeting and/or antimicrobial activity) [Peptide 1T-242]”, the “Target(s)” value under setting [1] is recorded as “F. nucleatum; also recorded: S. sanguinis”.

For the substance “1T-248 (IGGALNSCG; Peptide with targeting and/or antimicrobial activity) [Peptide 1T-248]”, under setting [1], the “Target(s)” value is on record as “S. sanguinis”.

For the substance “1T-249 (VFSVLKHTTWPTRKQSWHDFISILEYSAFFALVIFIFDKLLTLGLAELLKRF; Peptide with targeting and/or antimicrobial activity) [Peptide 1T-249]”, the “Target(s)” value under setting [1] is recorded as “F. nucleatum; also recorded: S. sanguinis”.

Regarding “1T-250 (LVQGDTILIENHVGTPVKDDGKDCLIIREADVLAVVND; Peptide with targeting and/or antimicrobial activity) [Peptide 1T-250]”, the “Target(s)” value under setting [1] is “S. mitis; also recorded: S. mutans; also recorded: S. oralis”.

For the substance “1T-252 (MKKNLKRFYALVLGFIIGCLFVSILIFIGY; Peptide with targeting and/or antimicrobial activity) [Peptide 1T-252]”, the “Target(s)” value under setting [1] is on record as “F. nucleatum; also recorded: S. sanguinis”.

For “1T-256 (KGKSLMPLLKQINQWGKLYL; Peptide with targeting and/or antimicrobial activity) [Peptide 1T-256]”, under setting [1], the “Target(s)” value is “S. sanguinis”.

For “1T-258 (TINIDDKVLDYLKKINSKAITIDLIGCAS; Peptide with targeting and/or antimicrobial activity) [Peptide 1T-258]”, the “Target(s)” value under setting [1] is listed as “A. naeslundii; also recorded: F. nucleatum; also recorded: P. gingivalis; also recorded: T. denticola; also recorded: S. mitis; also recorded: S. mutans; also recorded: S. oralis”.

Turning to “1T-259 (EKLKKILLKLAVCGKAWYTL; Peptide with targeting and/or antimicrobial activity) [Peptide 1T-259]”, the “Target(s)” value under setting [1] is reported as “F. nucleatum; also recorded: P. gingivalis; also recorded: T. denticola; also recorded: S. mitis; also recorded: S. mutans; also recorded: S. oralis; also recorded: S. sanguinis”.

For the substance “1T-260 (NILYFIHDENQWEPQKAEIFRGSIKHCAWLSS; Peptide with targeting and/or antimicrobial activity) [Peptide 1T-260]”, the “Target(s)” value under setting [1] is listed as “A. naeslundii; also recorded: P. gingivalis; also recorded: S. epidermidis; also recorded: S. gordonii; also recorded: S. mitis; also recorded: S. mutans; also recorded: S. oralis; also recorded: S. sanguinis”.

Regarding “1T-261 (SFEKNKIENNLKIAQAYIYIKPKPRICQA; Peptide with targeting and/or antimicrobial activity) [Peptide 1T-261]”, under setting [1], the “Target(s)” value is “F. nucleatum; also recorded: S. mutans; also recorded: S. oralis; also recorded: S. sanguinis”.

Consider “1T-264 (LEGKFYMAEDFDKTPECFKDYV; Peptide with targeting and/or antimicrobial activity) [Peptide 1T-264]”, for which the “Target(s)” value under setting [1] is reported as “S. sanguinis”.

As to “1T-266 (RAGTWLVVDEIR; Peptide with targeting and/or antimicrobial activity) [Peptide 1T-266]”, the “Target(s)” value under setting [1] was “S. sanguinis”.

Turning to “1T-267 (RIKEERKNRSYKFFIWRLFDEKTGFI; Peptide with targeting and/or antimicrobial activity) [Peptide 1T-267]”, under setting [1], the “Target(s)” value was “A. naeslundii; also recorded: F. nucleatum; also recorded: P. gingivalis; also recorded: T. denticola; also recorded: S. mitis; also recorded: S. mutans; also recorded: S. oralis; also recorded: S. sanguinis”.

Take “1T-268 (PITPKKEKCGLGTYAPKNPVFSKSRV; Peptide with targeting and/or antimicrobial activity) [Peptide 1T-268]”: the “Target(s)” value under setting [1] is recorded as “F. nucleatum; also recorded: S. mutans; also recorded: S. oralis; also recorded: S. sanguinis”.

“1T-269 (PLYVAAVEKINTAKKH; Peptide with targeting and/or antimicrobial activity) [Peptide 1T-269]”: the “Target(s)” value under setting [1] is “F. nucleatum; also recorded: S. mutans; also recorded: S. oralis; also recorded: S. sanguinis”.

Turning to “1T-270 (VHEFDIQKILQNR; Peptide with targeting and/or antimicrobial activity) [Peptide 1T-270]”, the “Target(s)” value under setting [1] is recorded as “F. nucleatum; also recorded: S. mutans; also recorded: S. oralis; also recorded: S. sanguinis”.

As to “1T-272 (QLAPIDKQLKAVKKIAFYESESTAAKAVTVA; Peptide with targeting and/or antimicrobial activity) [Peptide 1T-272]”, under setting [1], the “Target(s)” value is “F. nucleatum; also recorded: S. mutans; also recorded: S. oralis; also recorded: S. sanguinis”.

For “1T-273 (YNEPNYKWLESYKIYKQRCEDRTGMYYTEET; Peptide with targeting and/or antimicrobial activity) [Peptide 1T-273]”, the “Target(s)” value under setting [1] is “F. nucleatum; also recorded: P. gingivalis; also recorded: T. denticola; also recorded: S. mitis; also recorded: S. mutans; also recorded: S. oralis”.

For the substance “1T-274 (ETTTEINAIKLHRIKQRSPQGTRRVN; Peptide with targeting and/or antimicrobial activity) [Peptide 1T-274]”, the “Target(s)” value under setting [1] is listed as “F. nucleatum; also recorded: S. mutans; also recorded: S. oralis; also recorded: S. sanguinis”.

As for “1T-282 (ISLVFPAYT; Peptide with targeting and/or antimicrobial activity) [Peptide 1T-282]”, the “Target(s)” value under setting [1] was “F. nucleatum; also recorded: P. gingivalis; also recorded: S. gordonii; also recorded: S. mitis; also recorded: S. mutans; also recorded: S. oralis; also recorded: S. salivarious; also recorded: S. sanguinis”.

As for “1T-286 (LGFFNNKADLVKADTERDNRMSSLKIKDL; Peptide with targeting and/or antimicrobial activity) [Peptide 1T-286]”, the “Target(s)” value under setting [1] is reported as “S. sanguinis”.

For the substance “1T-287 (KGYPLPFQYRLNNH; Peptide with targeting and/or antimicrobial activity) [Peptide 1T-287]”, the “Target(s)” value under setting [1] is given as “P. gingivalis; also recorded: T. denticola; also recorded: S. gordonii; also recorded: S. mitis; also recorded: S. mutans; also recorded: S. oralis; also recorded: S. salivarious; also recorded: S. sanguinis”.

Regarding “1T-288 (RWVGGEPSADIYLSAKDTKT; Peptide with targeting and/or antimicrobial activity) [Peptide 1T-288]”, the “Target(s)” value under setting [1] was “F. nucleatum; also recorded: S. gordonii; also recorded: S. salivarious; also recorded: S. sanguinis”.

“1T-289 (EPSADIYLSAKDTKT; Peptide with targeting and/or antimicrobial activity) [Peptide 1T-289]”: under setting [1], the “Target(s)” value is “F. nucleatum; also recorded: P. gingivalis; also recorded: S. gordonii; also recorded: S. mitis; also recorded: S. mutans; also recorded: S. oralis; also recorded: S. sanguinis”.

On to “1T-291 (DMKIIKLYIKILSFLFIKYCNKKLNSVKLKA; Peptide with targeting and/or antimicrobial activity) [Peptide 1T-291]”, for which, under setting [1], the “Target(s)” value is “A. naeslundii; also recorded: F. nucleatum; also recorded: P. gingivalis; also recorded: T. denticola; also recorded: S. mitis; also recorded: S. mutans; also recorded: S. oralis”.

Consider “1T-294 (YDKIADGVFKIGKRGVL; Peptide with targeting and/or antimicrobial activity) [Peptide 1T-294]”, for which, under setting [1], the “Target(s)” value is “T. denticola”.

For “1T-295 (KYKLKKIIL; Peptide with targeting and/or antimicrobial activity) [Peptide 1T-295]”, the “Target(s)” value under setting [1] is recorded as “S. mitis; also recorded: S. salivarious; also recorded: S. sanguinis”.

“1T-297 (RSLRLNNALTKLPKLWYNRIKEAFYAYNDYDK; Peptide with targeting and/or antimicrobial activity) [Peptide 1T-297]”: the “Target(s)” value under setting [1] is recorded as “A. naeslundii; also recorded: F. nucleatum; also recorded: T. denticola; also recorded: S. mitis; also recorded: S. mutans; also recorded: S. oralis”.

On to “1T-301 (SKLPRVLDASLKL; Peptide with targeting and/or antimicrobial activity) [Peptide 1T-301]”, for which the “Target(s)” value under setting [1] was “F. nucleatum; also recorded: S. gordonii; also recorded: S. sanguinis”.

On to “1T-304 (STAGEASRRTASEASRRTAAKLRG; Peptide with targeting and/or antimicrobial activity) [Peptide 1T-304]”, for which the “Target(s)” value under setting [1] is listed as “P. gingivalis”.

Turning to AIEGVIKKGACFKLLRHEMF [PF-167], the “Target(s)” value under setting [2] was “S. epidermidis and E. coli and C. albicans and MRSA and C. jeikeium and C. jejuni”.

With ASKQASKQASKQASKQASKQASRSLKNHLL [PF-523], the “Target(s) (microorganisms bound by the targeting peptide)” value (peptide binding in aqueous buffers that varied depending on peptide solubility, preferably 1x PBS) was “S. epidermidis; also recorded: M. luteus; also recorded: C. albicans; also recorded: S. pneumoniae; also recorded: C. jeikeium; also recorded: C. jejuni”.

Turning to “CHA0 (D[dOrn]KTAA[dOrn]K; bridge (positions not given here); not fully specified (bridges))”, under setting [1], the “Target(s)” value is on record as “P. fluorescens”.

Turning to DAANEA-GGG [BL-1], the bacterial binding entry (data not shown) is recorded as “no bacterial binding”.

Consider “HIKETR (Peptide with targeting and/or antimicrobial activity) [PF-222]”, for which the “Target(s)” value under setting [2] is on record as “S. epidermidis”.
